Where two headings read alike, the source gives them in different places.
Tests used:
[1] = test system: P. falciparum strains D6, TM91-C235, W2, C2B; experiment: Malaria SYBR Green I-Based Fluorescence (MSF) Assay; format: cell-based, Plasmodium falciparum
Description: Testing of P. falciparum: D6 is a drug sensitive strain from Sierra Leone, C235 is a multi-drug resistant strain from Thailand, W2 is a chloroquine resistant strain from Thailand, and C2B has resistance to a variety of drugs including atovaquone.
D6 is a drug sensitive strain from Sierra Leone, C235 is a multi-drug resistant strain from Thailand, W2 is a chloroquine resistant strain from Thailand, and C2B has resistance to a variety of drugs including atovaquone. These assays were performed as described.
(§1) Compound activity against P. falciparum, a causative agent of malaria, was tested using the Malaria SYBR Green I—Based Fluorescence (MSF) Assay. This; microtiter plate drug sensitivity assay uses the presence of malarial DNA as a measure of parasitic proliferation in the presence of antimalarial drugs or experimental compounds based on modifications of previously described methods by Plouffe et al (20) and Johnson et al. As the intercalation of SYBR Green I dye and its resulting fluorescence is relative to parasite growth, a test compound that inhibits the growth of the parasite will result in a lower fluorescence.
Selected compounds were examined for activity against four strains of P. falciparum: D6 (CDC/Sierra Leone), a drug-sensitive strain readily killed by chloroquine, TM91-C235, a multi-drug resistant strain resistant to chloroquine, W2, a chloroquine resistant strain from Thailand, and C2B has resistance to a variety of drugs including atovaquone.
D6 is a drug sensitive strain from Sierra Leone, C235 is a multi-drug resistant strain from Thailand, W2 is a chloroquine resistant strain from Thailand, and C2B has resistance to a variety of drugs including atovaquone. These assays were performed using standard protocols.
as §1, with “known in the art.” for “by Plouffe et al (20) and Johnson et al.”, “fluorescence. Selected compounds were examined for activity against four strains of P. falciparum: D6 (CDC/Sierra Leone), a drugsensitive strain readily killed by chloroquine, TM91-C235, a multi-drug resistant strain resistant to chloroquine, W2, a chloroquine resistant strain from Thailand, and C2B has resistance to a variety of drugs including atovaquone.” for “fluorescence.”

[2] = test system: T. gondii tachyzoites (RH-YFP strain); experiment: In vitro challenge assay for Toxoplasma tachyzoites (RH-YFP in HFF, fluorescence); format: cell-based, Toxoplasma gondii; conditions: Toxoplasma gondii; RH-YFP; read-out: Tachy IC50
Description: Human foreskin fibroblasts (HFF) were cultured on a flat, clear-bottomed, black 96-well plate to 90% to 100% confluence. IMDM (1×, [+] glutamine, [+] 25 mM HEPES, [+] Phenol red, 10% FBS [gibco, Denmark]) was removed from each well and replaced with IMDM-C (1×, [+] glutamine, [+] 25 mM HEPES, [−] Phenol red, 10% FBS)[Gibco, Denmark]). Type I RH parasites expressing Yellow Fluorescent Protein (RH-YFP) were lysed from host cells by double passage through a 27-gauge needle. Parasites were counted and diluted to 32,000/mL in IMDM-C. Fibroblast cultures were infected with 3200 tachyzoites of the Type I RH-YFP strain and returned to incubator at 37° C. for 1-2 hours to allow for infection. Diluted solutions of the compounds were made using IMDM-C, and 20 μl were added to each designated well, with triplicates for each condition. Controls included pyrimethamine/sulfadiazine (current standard of treatment), DMSO only, fibroblast only, and an untreated YFP gradient with 2 fold dilutions of the parasite. Cells were incubated at 37° C. for 72 hours. The plates were read using a fluorimeter (Synergy H4 Hybrid Reader, BioTek) To ascertain the amount of yellow fluorescent protein, in relative fluorescence units (RFU), as a measure of parasite burden after treatment. Compounds were not considered effective or pursued for further analysis if there were no signs of inhibition at 1 μM. Data was collected using Gen5 software and analyzed with Excel.
Protocol adapted from Fomovska, et. al. (18,19). Human foreskin fibroblasts (HFF) were cultured on a flat, clear-bottomed, black 96-well plate to 90% to 100% confluence. IMDM (1×, [+] glutamine, [+] 25 mM HEPES, [+] Phenol red, 10% FBS [gibco, Denmark]) was removed from each well and replaced with IMDM-C (1×, [+] glutamine, [+] 25 mM HEPES, [−] Phenol red, 10% FBS)[gibco, Denmark]). Type I RH parasites expressing Yellow Fluorescent Protein (RH-YFP) were lysed from host cells by double passage through a 27-gauge needle. Parasites were counted and diluted to 32,000/mL in IMDM-C. Fibroblast cultures were infected with 3200 tachyzoites of the Type I RH strain expressing Yellow Fluorescent Protein (RH-YFP) and returned to incubator at 37° C. for 1-2 hours to allow for infection (15). Various concentrations of the compounds were made using IMDM-C, and 20 μl were added to each designated well, with triplicates for each condition. Controls included pyrimethamine/sulfadiazine (current standard of treatment), 0.1% DMSO only, fibroblast only, and an untreated YFP gradient with 2 fold dilutions of the parasite. Cells were incubated at 37° C. for 72 hours. Plates were read using a fluorimeter (Synergy H4 Hybrid Reader, BioTek) to ascertain the amount of yellow fluorescent protein, in relative fluorescence units (RFU), as a measure of parasite burden after treatment. Data was collected using Gen5 software. IC50 was calculated by graphical analysis in Excel.
An initial screening assay of 10 μM, 1 μM, 100 nM, and 10 nM was performed. Compounds were not considered effective or pursued for further analysis if there were no signs of inhibition of tachyzoites at 1 μM. If compounds did appear to be effective at 1 μM, another experiment was conducted to assess effect at 1 μM, 500 nM, 250 nM, 125 nM, 62.5 nM, and 31.25 nM.
Protocol adapted from Fomovska, et. al. (Fomovska A, Huang Q, El Bissati K, Mui E J, Witola W H, Cheng G, et al. Novel N-Benzoyl-2-Hydroxybenzamide Disrupts Unique Parasite Secretory Pathway. Antimicrob Agents Chemother [Internet]. 2012 May [cited 2015 Jul. 8]; 56(5):2666-82; Fomovska A, Wood R D, Mui E, Dubey J P, Ferreira L R, Hickman M R, et al. Salicylanilide inhibitors of Toxoplasma gondii. J Med Chem. 2012 Oct. 11; 55(19):8375-91.). Human foreskin fibroblasts (HFF) were cultured on a flat, clear-bottomed, black 96-well plate to 90% to 100% confluence. […]

[3] = Plasmodium falciparum, D6 strain, read-out: Pf D6 IC50
[4] = Plasmodium falciparum, C2B strain, read-out: SYBR Green C2B IC50
[5] = Plasmodium falciparum, D6 strain, read-out: SYBR Green D6 IC50
[6] = Plasmodium falciparum, TM91C235 strain, read-out: SYBR Green C235 IC50
[7] = Plasmodium falciparum, W2 strain, read-out: SYBR Green W2 IC50

Cc1[nH]c2c(c(=O)c1-c1ccc(Oc3cccc(C(=O)O)c3)cc1)CCCC2 [JAG047, 3-(4-(2-methyl-4-oxo-1,4,5,6,7,8-hexahydroquinolin-3-yl)phenoxy)benzoic acid] gave an IC50 [1, 3] of 3.75 µM.
Cc1[nH]c2c(c(=O)c1-c1ccc(Oc3ccc(F)c(Cl)c3)cc1)CCCC2 [AS021/ JAG145, 3-[4-(3-chloro-4-fluorophenoxy)phenyl]-2-methyl-5,6,7,8-tetrahydro-1H-quinolin-4-one] was tested, and the IC50 [2] was 80 nM.
Compound Cc1[nH]c2c(c(=O)c1-c1ccc(Oc3ccc(F)cc3)cc1)CCCC2 [JAG58, 3-(4-(4-fluorophenoxy)phenyl)-2-methyl-5,6,7,8-tetrahydroquinolin-4(1H)-one] has an IC50 [2] of 40 to 80 nM.
Compound CCC1CCc2c([nH]c(C)c(-c3ccc(Oc4ccc(OC(F)(F)F)cc4)cc3)c2=O)C1 (centres unmarked) [JAG121, 7-Ethyl-2-methyl-3(4-(4-trifluoromethoxyphenoxy)phenyl)-5,6,7,8-tetrahydroquinolin-4(1H)-one] has an IC50 [2] of 100 nM.
Cc1[nH]c2c(c(=O)c1-c1ccc(Oc3cccc(C(F)(F)F)c3)cc1)CCCC2 [AS012/ JAG144, 2-methyl-3-(4-(3-(trifluoromethyl)phenoxy)phenyl)-5,6,7,8-tetrahydroquinolin-4(1H)-one] gave an IC50 [2] of 300 nM.
Work on Cc1[nH]c2c(c(=O)c1-c1ccc(Oc3ccc(C(=O)O)cc3)nc1)CCCC2 [JAG039, 4-((5-(2-methyl-4-oxo-1,4,5,6,7,8-hexahydroquinolin-3-yl)pyridin-2-yl)oxy)benzoic acid] yielded an IC50 [1, 4] greater than 20 µM, an IC50 [1, 3] of 9.6 µM and an IC50 [1, 5] of 9.6 µM. The IC50 [1, 6] was greater than 20 µM and the IC50 [1, 7] was greater than 20 µM.
Cc1[nH]c2c(c(=O)c1-c1ccc(Oc3cc(Cl)nc(Cl)c3)cc1)CCCC2 [AS034/ JAG148, 3-{4-[(2,6-dichloropyridin-4-yl)oxy]phenyl}-2-methyl-5,6,7,8-tetrahydro-1H-quinolin-4-one] showed an IC50 [2] of 100 to 500 nM.
CCn1c(C)c(-c2ccc(Oc3ccccc3)cc2)c(=O)c2ccccc21 [JM10, 1-ethyl-2-methyl-3-(4-phenoxyphenyl)quinolin-4(1H)-one] gave an IC50 [1, 4] of 6.75 µM, an IC50 [1, 5] of 0.88 µM and an IC50 [1, 6] of 4.48 µM. For the same compound, the IC50 [1, 7] was 5.36 µM.
In the case of Cc1[nH]c2c(c(=O)c1-c1ccc(Oc3cccc(OC(F)(F)F)c3)cc1)CCCC2 [AS006/ JAG143, 2-methyl-3-(4 (3-(trifluoromethoxy)phenoxy)phenyl)-5,6,7,8-tetrahydroquinolin-4(1H)-one], the IC50 [2] is reported as 60 to 80 nM.
With Cc1[nH]c2ccccc2c(=O)c1-c1ccc(Oc2ccc(Cl)cc2)c(O)c1 [RG38, 3-(4-(4-chlorophenoxy)-3-hydroxyphenyl)-2-methylquinolin-4(1H)-one] the IC50 ([1]; D6 strain, read-out: SYBR Green D6 IC50) was 2.88 µM, the IC50 [1, 4] was greater than 20 µM and the IC50 [1, 5] was 2.84 µM. For the same compound, the IC50 [1, 6] was 13.7 µM and the IC50 [1, 7] was 9.25 µM.
Cc1[nH]c2c(c(=O)c1-c1ccc(Oc3ccc(OC(F)(F)F)cc3)cc1)CCC(C(F)(F)F)C2 (centres unmarked) [JAG162, 7-Trifluromethyl-2-methyl-3(4-(4-trifluoromethoxyphenoxy)phenyl)-5,6,7,8-tetrahydroquinolin-4(1H)-one] showed an IC50 [2] of 500 nM.
Cc1[nH]c2c(c(=O)c1-c1ccc(Oc3ccc(OC(F)(F)F)cc3)cc1)CC(C)CC2 (centres unmarked) [JAG106, 3(4-(4-Trifluoromethoxyphenoxy)phenyl)-2,6-dimethyl-5,6,7,8-tetrahydroquinolin-4(1H)-one] gave an IC50 [2] of roughly 1000 nM.
Compound Cc1[nH]c2c(c(=O)c1-c1ccc(Oc3ccc(C(=O)O)cc3)cc1)CCCC2 [JAG046, 4-(4-(2-methyl-4-oxo-1,4,5,6,7,8-hexahydroquinolin-3-yl)phenoxy)benzoic acid] has an IC50 [1, 3] of 6.72 µM.
Compound Cc1[nH]c2c(c(=O)c1-c1ccc(Oc3ccc(OC(F)(F)F)cc3)cc1)CCC(C)C2 (centres unmarked) [JAG107, 3(4-(4-Trifluoromethoxyphenoxy)phenyl)-2,7-dimethyl-5,6,7,8-tetrahydroquinolin-4(1H)-one] has an IC50 [2] of 1000 nM.
In the case of Cc1[nH]c2c(c(=O)c1-c1ccc(Oc3ccc4c(c3)OCO4)cc1)CCCC2 [AS032, 3-[4-(2H-1,3-benzodioxo1-5-yloxy)phenyl]-2-methyl-5,6,7,8-tetrahydro-1H-quinolin-4-one], the IC50 [2] is reported as 100 to 300 nM.
Cc1[nH]c2c(c(=O)c1-c1ccc(Oc3ccc(C(F)(F)F)cc3)cc1)CCCC2 [JAG63, 2-methyl-3-(4-(4-(trifluoromethyl)phenoxy)phenyl)-5,6,7,8-tetrahydroquinolin-4(1H)-one] was tested, and the IC50 [2] was 100 to 300 nM.
Cc1[nH]c2cnccc2c(=O)c1-c1ccc(Oc2ccc(OC(F)(F)F)cc2)cc1 [JAG129, 3(4-(4-trifluoromethoxyphenoxy)phenyl)-2-methyl-1,7-napthyrid-4(1H)-one] gave an IC50 [2] of 100 nM.
For Cc1[nH]c2ccccc2c(=O)c1-c1ccc(Oc2ccccc2)cc1 [MJM129, 2-methyl-3-(4-phenoxyphenyl)quinolin-4(1H)-one], the IC50 [1, 4] was 0.01 µM, the IC50 [1, 5] was 0.03 µM and the IC50 [1, 6] was 0.07 µM. The IC50 [1, 7] was 0.08 µM.
In the case of Cc1[nH]c2c(c(=O)c1-c1ccc(Oc3ccc(Cl)c(Cl)c3)cc1)CCCC2 [JAG084, 3-(4-(3,4-Dichlorophenoxy)phenyl)-2-methyl-5,6,7,8-tetrahydroquinolin-4(1H)-one], the IC50 [2] is reported as 40 to 80 nM.
Cc1[nH]c2c(c(=O)c1-c1ccc(Oc3cc(Cl)cc(Cl)c3)cc1)CCCC2 [AS022, 3-[4-(3,5-dichlorophenoxy)phenyl]-2-methyl-5,6,7,8-tetrahydro-1H-quinolin-4(1H)-one] showed an IC50 [2] of 20 to 40 nM.
With O=C(O)c1[nH]c2c(c(=O)c1-c1ccc(Oc3ccc(OC(F)(F)F)cc3)cc1)CCCC2 [JAG091, 3(4-(4-Trifluoromethoxyphenoxy)phenyl)-2-(carboxylate)-5,6,7,8-tetrahydroquinolin-4(1H)-one] the IC50 [2] was greater than 1000 nM.
